Source: BindingDB's records for doi:10.7270/Q2H70D5W (University of Pittsburgh, 2007)

Each compound was assayed against Gag-Pol polyprotein (Human immunodeficiency virus type 1 group M subtype B (isolate HXB2), UniProt P04585) (assay: concentration-response of HIV-1 RNase H blockers – biochemical, probe assessment, dose response (AID 652)). Conditions: pH 8; 23 °C.
`c1ccc(Cc2nn3c(Cn4nnc5ccccc54)nnc3s2)cc1` [3-(1-benzotriazolylmethyl)-6-(phenylmethyl)-[1,2,4]triazolo[3,4-b][1,3,4]thiadiazole] showed an IC50 of 1.84 µM. `c1ccc2c(c1)nnn2Cc1nnc2sc(-c3ccncc3)nn12` [3-(1-benzotriazolylmethyl)-6-pyridin-4-yl-[1,2,4]triazolo[3,4-b][1,3,4]thiadiazole] showed an IC50 of 2.1 µM. For `c1csc(-c2nn3c(C4COc5ccccc5O4)nnc3s2)c1` (configuration not stated) [3-(2,3-dihydro-1,4-benzodioxin-2-yl)-6-(2-thienyl)[1,2,4]triazolo[3,4-b][1,3,4]thiadiazole], the IC50 was 1.21 µM. `COc1ccc(N2CSC3=C(C#N)C(c4cc(OC)ccc4OC)CC(=O)N3C2)c(OC)c1` (configuration not stated) [3-(2,4-dimethoxyphenyl)-8-(2,5-dimethoxyphenyl)-6-keto-2,4,7,8-tetrahydropyrido[2,1-b][1,3,5]thiadiazine-9-carbonitrile] showed an IC50 of 2.9 µM. Work on `COc1ccc(N2CSC3=C(C#N)C(c4ccc(OC)c(OC)c4)CC(=O)N3C2)c(OC)c1` (configuration not stated) [3-(2,4-dimethoxyphenyl)-8-(3,4-dimethoxyphenyl)-6-oxidanylidene-2,4,7,8-tetrahydropyrido[2,1-b][1,3,5]thiadiazine-9-carbonitrile] yielded an IC50 of 17.8 µM. For `CCOc1ccccc1N1CSC2=C(C#N)C(c3c(OC)ccc4ccccc34)CC(=O)N2C1` (configuration not stated) [3-(2-ethoxyphenyl)-8-(2-methoxy-1-naphthalenyl)-6-oxo-2,4,7,8-tetrahydropyrido[2,1-b][1,3,5]thiadiazine-9-carbonitrile], the IC50 was 2.18 µM. Compound `CCc1ccccc1N1CSC2=C(C#N)C(c3cc(OC)c(OC)cc3OC)CC(=O)N2C1` (configuration not stated) [3-(2-ethylphenyl)-6-oxidanylidene-8-(2,4,5-trimethoxyphenyl)-2,4,7,8-tetrahydropyrido[2,1-b][1,3,5]thiadiazine-9-carbonitrile] has an IC50 of 2.91 µM. For `CCc1ccccc1N1CSC2=C(C#N)C(c3ccccc3F)CC(=O)N2C1` (configuration not stated) [3-(2-ethylphenyl)-8-(2-fluorophenyl)-6-keto-2,4,7,8-tetrahydropyrido[2,1-b][1,3,5]thiadiazine-9-carbonitrile], the IC50 was 1.22 µM. Work on `CN(C)c1ccc2c(c1)N=C(c1ccco1)OP2(=S)N1CCOCC1` (configuration not stated) [3-(2-furanyl)-N,N-dimethyl-1-(4-morpholinyl)-1-sulfanylidene-2,4,1-benzoxazaphosphorin-6-amine] yielded an IC50 of 1.66 µM. Compound `COc1ccccc1N1CSC2=C(C#N)C(c3ccc(SC)cc3)CC(=O)N2C1` (configuration not stated) [3-(2-methoxyphenyl)-8-(4-methylsulfanylphenyl)-6-oxidanylidene-2,4,7,8-tetrahydropyrido[2,1-b][1,3,5]thiadiazine-9-carbonitrile] has an IC50 of 2.59 µM. Compound `COc1cc(C2CC(=O)N3CN(c4ccccc4C)CSC3=C2C#N)cc(OC)c1OC` (configuration not stated) [3-(2-methylphenyl)-6-oxidanylidene-8-(3,4,5-trimethoxyphenyl)-2,4,7,8-tetrahydropyrido[2,1-b][1,3,5]thiadiazine-9-carbonitrile] has an IC50 of 4.1 µM. `CC(=O)C(C(C)=O)c1c(Cl)c(O)c(O)c2c(C(=O)c3ccccc3)coc12` [3-(3-benzoyl-6-chloro-4,5-dihydroxy-1-benzofuran-7-yl)pentane-2,4-dione] showed an IC50 of 0.384 µM. `CC(C)(C)c1ccc(-c2nnc3sc(-c4ccncc4)nn23)cc1` [3-(4-tert-butylphenyl)-6-(4-pyridinyl)[1,2,4]triazolo[3,4-b][1,3,4]thiadiazole] was tested, and the IC50 was 6.18 µM. In the case of `CN(C)c1cccc(C(=O)Nc2cccc(F)c2)c1` [3-(dimethylamino)-N-(3-fluorophenyl)benzamide], the IC50 is reported as 12.2 µM. `c1ccc(Cc2nn3c(COc4ccccc4)nnc3s2)cc1` [3-(phenoxymethyl)-6-(phenylmethyl)-[1,2,4]triazolo[3,4-b][1,3,4]thiadiazole] showed an IC50 of 1.36 µM. In the case of `COc1cc(-c2nn3c(Cc4ccccc4)nnc3s2)cc(OC)c1OC` [3-(phenylmethyl)-6-(3,4,5-trimethoxyphenyl)-[1,2,4]triazolo[3,4-b][1,3,4]thiadiazole], the IC50 is reported as 4.78 µM. `c1ccc(Cc2nnc3sc(-c4ccncc4)nn23)cc1` [3-(phenylmethyl)-6-pyridin-4-yl-[1,2,4]triazolo[3,4-b][1,3,4]thiadiazole] gave an IC50 of 1.81 µM. In the case of `Cc1nn(CCC#N)c2c1P(=S)(N1CCCC1)OC(c1ccc(F)cc1)=N2` (configuration not stated) [3-[3-(4-fluorophenyl)-7-methyl-1-(1-pyrrolidinyl)-1-sulfanylidene-5-pyrazolo[4,3-c][1,5,2]oxazaphosphorinyl]propanenitrile], the IC50 is reported as 0.879 µM. With `COc1ccc2nc(O)c(CN(C3CCCCC3)C(c3nnnn3Cc3ccco3)C(C)C)cc2c1` (configuration not stated) [3-[[cyclohexyl-[1-[1-(2-furanylmethyl)-5-tetrazolyl]-2-methylpropyl]amino]methyl]-6-methoxy-1H-quinolin-2-one] the IC50 was 1.03 µM. In the case of `C=CCn1c(N)c(C(=O)NCCC2=CCCCC2)sc1=S` [3-allyl-4-amino-N-(2-cyclohex-1-en-1-ylethyl)-2-thioxo-2,3-dihydro-1,3-thiazole-5-carboxamide], the IC50 is reported as 3.82 µM. In the case of `COC(=O)c1oc2ccc(Br)cc2c1NC(=O)c1ccccc1` [3-benzamido-5-bromo-2-benzofurancarboxylic acid methyl ester], the IC50 is reported as 0.989 µM. With `COc1ccc2ccccc2c1C1CC(=O)N2CN(C3CCCCC3)CSC2=C1C#N` (configuration not stated) [3-cyclohexyl-8-(2-methoxynaphthalen-1-yl)-6-oxo-2,4,7,8-tetrahydropyrido[2,1-b][1,3,5]thiadiazine-9-carbonitrile] the IC50 was 3.62 µM. `CCOc1cc(C2CC(=O)N3CN(C4CCCCC4)CSC3=C2C#N)ccc1O` (configuration not stated) [3-cyclohexyl-8-(3-ethoxy-4-hydroxy-phenyl)-6-keto-2,4,7,8-tetrahydropyrido[2,1-b][1,3,5]thiadiazine-9-carbonitrile] was tested, and the IC50 was 19.5 µM. `O=C1CCCC(=O)C1C(C#Cc1ccccc1)C1C(=O)CCCC1=O` [3-hydroxy-2-[1-(2-hydroxy-6-keto-cyclohexen-1-yl)-3-phenyl-prop-2-ynyl]cyclohex-2-en-1-one] gave an IC50 of 1.08 µM. Compound `O=C(O)c1ccc2c(c1)NC(=O)C(N1CCCC1)S2` (configuration not stated) [3-keto-2-pyrrolidino-4H-1,4-benzothiazine-6-carboxylic acid] has an IC50 of 3.69 µM. In the case of `CC(C)CN(C(=O)COC(=O)c1ccc2c(c1)NC(=O)CS2)C1CCS(=O)(=O)C1` (configuration not stated) [3-keto-4H-1,4-benzothiazine-6-carboxylic acid [2-[(1,1-diketothiolan-3-yl)-isobutyl-amino]-2-keto-ethyl] ester], the IC50 is reported as 30.3 µM. With `COc1cc(OC)c(C2CC(=O)N3CN(C)CSC3=C2C#N)cc1OC` (configuration not stated) [3-methyl-6-oxidanylidene-8-(2,4,5-trimethoxyphenyl)-2,4,7,8-tetrahydropyrido[2,1-b][1,3,5]thiadiazine-9-carbonitrile] the IC50 was 14.5 µM. With `Cc1ccc(Cn2c(SCC(C)C)nc3c2c(=O)[nH]c(=O)n3C)cc1` [3-methyl-7-[(4-methylphenyl)methyl]-8-(2-methylpropylthio)purine-2,6-dione] the IC50 was 1.71 µM. `C=CCSc1nc2c(c(=O)[nH]c(=O)n2C)n1C(C)C` [3-methyl-7-propan-2-yl-8-prop-2-enylsulfanylpurine-2,6-dione] was tested, and the IC50 was > 50 µM. In the case of `CC1CC(C)(C)NC(=S)S1` (configuration not stated) [4,4,6-trimethyl-1,3-thiazinane-2-thione], the IC50 is reported as 5.24 µM. For `CCCc1cc(C(=O)Nc2sc(C)c(C)c2C(=O)OCC)no1` [4,5-dimethyl-2-[(5-propylisoxazole-3-carbonyl)amino]thiophene-3-carboxylic acid ethyl ester], the IC50 was 2.53 µM. `C=CCc1c(C)nc(S)c(C#N)c1C` [4,6-dimethyl-5-prop-2-enyl-2-sulfanylidene-1H-pyridine-3-carbonitrile] gave an IC50 of 7.25 µM.
